Earlier results in patent publication US6809181B2, “Human beta-defensin-3 (HBD-3), a highly cationic beta-defensin antimicrobial peptide” (University of Iowa Research Foundation, priority 2000, dated 2004).
Values after ≈ are worked out from the molar mass of the structure shown. Read-outs that look alike come from different tables or passages of the source.

What was measured:
[1] = test system: Bacillus spp.; settings: cited from earlier work
[2] = test system: Bacteroides fragilis; settings: n=97, r7, cited from earlier work
[3] = test system: Bordetella bronchiseptica; settings: n=11, r8, cited from earlier work
[4] = test system: Bordetella parapertussis; settings: n=46; r9; unit assumed; cited from earlier work
[5] = test system: Bordetella pertussis; settings: n=32; r10; unit assumed; cited from earlier work
[6] = test system: Borrelia burgdorferi; settings: n=10; r12; unit assumed; cited from earlier work
[7] = test system: Branhamella (Moraxella) catarrhalis; settings: n=20, unit assumed, cited from earlier work
[8] = test system: Branhamella (Moraxella) catarrhalis (β-lactamase producer); settings: cited from earlier work
[9] = test system: Enterococcus faecalis; settings: cited from earlier work
[10] = test system: Enterococcus faecium; settings: n=14, r51, cited from earlier work
[11] = test system: Enterococcus spp.; settings: n=35, r52, cited from earlier work
[12] = test system: Haemophilus influenzae; settings: cited from earlier work; for MIC50 / MIC90: unit assumed
[13] = test system: Haemophilus influenzae (non β-lactamase producer); settings: n=137; r58; cited from earlier work
[14] = test system: Haemophilus influenzae (β-lactamase producer); settings: cited from earlier work
[15] = test system: Haemophilus influenzae (penicillin susceptible); settings: n=22, r64, cited from earlier work
[16] = test system: Haemophilus parainfluenzae; settings: n=13, r68, cited from earlier work
[17] = test system: Neisseria gonorrhoeae; settings: n=19, r81, cited from earlier work
[18] = test system: Neisseria gonorrhoeae (β-lactamase producer); settings: cited from earlier work
[19] = test system: Neisseria meningitidis; settings: n=19, r90, cited from earlier work
[20] = test system: Staphylococcus aureus; settings: unit assumed, cited from earlier work
[21] = test system: Staphylococcus aureus (penicillin susceptible); settings: cited from earlier work; for MIC50 / MIC90: unit assumed
[22] = test system: Staphylococcus aureus (penicillin resistant); settings: n=35, r98, cited from earlier work
[23] = test system: Staphylococcus aureus (methicillin resistant); settings: cited from earlier work
[24] = test system: Staphylococcus coagulase f; settings: unit assumed; cited from earlier work
[25] = test system: Staphylococcus epidermidis; settings: n=50; r120; unit assumed; cited from earlier work
[26] = test system: Staphylococcus hominis; settings: n=20; r122; unit assumed; cited from earlier work
[27] = test system: Streptococcus agalactiae; settings: cited from earlier work
[28] = test system: Streptococcus pyogenes; settings: cited from earlier work
[29] = test system: Streptococcus spp.; settings: cited from earlier work; for MIC50 / MIC90: unit assumed

## CC[C@H]1OC(=O)[C@H](C)[C@@H](O[C@H]2C[C@@](C)(OC)[C@@H](O)[C@H](C)O2)[C@H](C)[C@@H](O[C@@H]2O[C@H](C)C[C@H](N(C)C)[C@H]2O)[C@](C)(O)C[C@@H](C)C(=O)[C@H](C)[C@@H](O)[C@]1(C)O [ERYTHROMYCIN, erythromycin]
[1]; n=20, r6
  Range: 0.03-2
[1]; n=20, r6, unit assumed
  MIC90: 2 µg/mL (≈ 2.73 µM)
[1]; unit assumed
  MIC50: 0.25 µg/mL (≈ 0.341 µM)
[2]
  Range: 0.25-16
[2]; unit assumed
  MIC50: 1 µg/mL (≈ 1.36 µM)
  MIC90: 8 µg/mL (≈ 10.9 µM)
[3]
  Range: 4-32
[3]; unit assumed
  MIC50: 8 µg/mL (≈ 10.9 µM)
  MIC90: 32 µg/mL (≈ 43.6 µM)
[4]
  MIC50: 0.25 µg/mL (≈ 0.341 µM)
[5]
  MIC50: 0.25 µg/mL (≈ 0.341 µM)
[6]
  MIC50: 0.03 µg/mL (≈ 0.0409 µM)
  MIC90: 0.06 µg/mL (≈ 0.0818 µM)
[7]; r13
  MIC50: 0.25 µg/mL (≈ 0.341 µM)
[7]; r15
  MIC50: 0.25 µg/mL (≈ 0.341 µM)
  MIC90: 1 µg/mL (≈ 1.36 µM)
[8]; n=47, r29
  Range: 0.06-1
[8]; n=58, r32
  Range: 0.03-0.25
[8]; n=160, r35
  Range: 0.06-8
[9]; n=26, r47
  Range: 1-64
[9]; n=26, r47, unit assumed
  MIC50: 1 µg/mL (≈ 1.36 µM)
  MIC90: 4 µg/mL (≈ 5.45 µM)
[9]; n=50, r48
  Range: 0.06-64
[9]; n=50, r48, unit assumed
  MIC50: 4 µg/mL (≈ 5.45 µM)
[9]; n=86, r49, unit assumed
  MIC50: 1 µg/mL (≈ 1.36 µM)
[9]; n=97, r50, unit assumed
  MIC50: 2 µg/mL (≈ 2.73 µM)
[10]
  Range: 0.06-64
[10]; unit assumed
  MIC50: 1 µg/mL (≈ 1.36 µM)
[11]
  Range: 0.06-32
[11]; unit assumed
  MIC50: 2 µg/mL (≈ 2.73 µM)
  MIC90: 32 µg/mL (≈ 43.6 µM)
[12]; n=97, r55
  Range: 0.25-16
  MIC50: 1 µg/mL (≈ 1.36 µM)
  MIC90: 4 µg/mL (≈ 5.45 µM)
[12]; n=145, r54
  Range: 0.5-8
  MIC50: 2 µg/mL (≈ 2.73 µM)
  MIC90: 2 µg/mL (≈ 2.73 µM)
[13]
  Range: 0.06-8
[14]; n=17, r62
  Range: 0.25-4
[14]; n=46, r60
  Range: 0.06-8
[15]
  Range: 0.25-16
[15]; unit assumed
  MIC50: 8 µg/mL (≈ 10.9 µM)
  MIC90: 16 µg/mL (≈ 21.8 µM)
[16]
  Range: 0.5-8
[16]; unit assumed
  MIC50: 2 µg/mL (≈ 2.73 µM)
  MIC90: 4 µg/mL (≈ 5.45 µM)
[17]
  Range: 0.0075-8
[17]; unit assumed
  MIC50: 0.25 µg/mL (≈ 0.341 µM)
  MIC90: 1 µg/mL (≈ 1.36 µM)
[18]; n=12, r86
  Range: 0.03-4
[18]; n=17, r88
  Range: 1-4
[19]
  Range: 0.5-8
[19]; unit assumed
  MIC50: 1 µg/mL (≈ 1.36 µM)
  MIC90: 8 µg/mL (≈ 10.9 µM)
[20]; n=44, r92
  MIC90: 0.5 µg/mL (≈ 0.681 µM)
[20]; n=100, r93
  MIC50: 0.5 µg/mL (≈ 0.681 µM)
  MIC90: 4 µg/mL (≈ 5.45 µM)
[21]; n=20, r94
  MIC50: 0.5 µg/mL (≈ 0.681 µM)
  MIC90: 0.5 µg/mL (≈ 0.681 µM)
[21]; n=35, r96
  Range: 0.06-32
  MIC50: 0.25 µg/mL (≈ 0.341 µM)
  MIC90: 0.5 µg/mL (≈ 0.681 µM)
[22]
  Range: 0.25-32
[22]; unit assumed
  MIC50: 0.25 µg/mL (≈ 0.341 µM)
  MIC90: 32 µg/mL (≈ 43.6 µM)
[23]; n=15, r108
  Range: 64
[23]; n=15, r108, unit assumed
  MIC50: 64 µg/mL (≈ 87.2 µM)
[23]; n=20, r110
  Range: 64
[23]; n=20, r110, unit assumed
  MIC50: 64 µg/mL (≈ 87.2 µM)
[23]; n=30, r112
  Range: 0.06-32
[23]; n=30, r112, unit assumed
  MIC50: 32 µg/mL (≈ 43.6 µM)
  MIC90: 32 µg/mL (≈ 43.6 µM)
[24]
  MIC50: 0.25 µg/mL (≈ 0.341 µM)
[25]
  MIC50: 64 µg/mL (≈ 87.2 µM)
[26]
  MIC50: 64 µg/mL (≈ 87.2 µM)
[27]; n=20, r123
  Range: 0.03-0.25
[27]; n=20, r123, unit assumed
  MIC50: 0.03 µg/mL (≈ 0.0409 µM)
[27]; n=34, r124
  Range: 0.015-0.06
[27]; n=34, r124, unit assumed
  MIC50: 0.03 µg/mL (≈ 0.0409 µM)
  MIC90: 0.03 µg/mL (≈ 0.0409 µM)
[28]; n=19, r131
  Range: 0.03-0.25
[28]; n=20, r132
  Range: 0.03-0.25
[28]; n=20, r134
  Range: 0.06-32
[28]; n=20, r134, unit assumed
  MIC90: 32 µg/mL (≈ 43.6 µM)
[28]; n=33, r133
  Range: 0.015-0.03
[28]; n=33, r133, unit assumed
  MIC50: 0.03 µg/mL (≈ 0.0409 µM)
  MIC90: 0.03 µg/mL (≈ 0.0409 µM)
[29]; n=22, r135
  Range: 0.015-0.25
  MIC50: 0.03 µg/mL (≈ 0.0409 µM)
  MIC90: 0.06 µg/mL (≈ 0.0818 µM)
[29]; n=107, r136
  Range: 0.004-2
  MIC50: 0.03 µg/mL (≈ 0.0409 µM)
  MIC90: 1 µg/mL (≈ 1.36 µM)
